Measured values: ChEMBL document CHEMBL5523702, “Synthesis and structure-activity optimization of azepane-containing derivatives as PTPN2/PTPN1 inhibitors” (Eur J Med Chem, 2024)
In brackets after ≈: the same amount, converted by molar mass.

What was measured:
[1] = Cmax in mouse at 10 mg/kg, po; assay type: ADME, organism-based; settings: in vivo
[2] = Half life in mouse at 10 mg/kg, po; assay type: ADME, organism-based; settings: in vivo
[3] = AUC (0 to t) in mouse at 10 mg/kg, po; assay type: ADME, organism-based; settings: in vivo
[4] = Inhibition of PTPN2 in IFN-gamma induced mouse B16-F10 cells; assay type: cell-based; settings: Mus musculus, B16-F10
[5] = biological target: T1, Tyrosine-protein phosphatase non-receptor type 2 (Homo sapiens, UniProt P17706); assay: Inhibition of human PTPN2 using DiFMUP as substrate by fluorescence based phosphatase assay
T1 sequence (P17706 whole entry): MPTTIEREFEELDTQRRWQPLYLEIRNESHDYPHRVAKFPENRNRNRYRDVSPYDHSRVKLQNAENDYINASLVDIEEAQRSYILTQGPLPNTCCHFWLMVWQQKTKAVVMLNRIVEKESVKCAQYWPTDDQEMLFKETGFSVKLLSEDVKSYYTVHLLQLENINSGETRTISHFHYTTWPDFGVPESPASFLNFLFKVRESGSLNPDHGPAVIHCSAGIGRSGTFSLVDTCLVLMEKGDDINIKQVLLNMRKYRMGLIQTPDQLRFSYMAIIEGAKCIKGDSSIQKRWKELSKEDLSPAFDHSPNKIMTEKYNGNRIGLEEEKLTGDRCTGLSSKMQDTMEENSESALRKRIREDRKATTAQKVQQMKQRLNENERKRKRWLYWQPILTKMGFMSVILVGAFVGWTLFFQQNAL

[6] = Cmax in rat at 10 mg/kg, po; assay type: ADME, organism-based; settings: in vivo
[7] = Volume of distribution at steady state in dog at 1 mg/kg, iv; assay type: ADME, organism-based, Canis lupus familiaris; settings: in vivo, read-out: Vdss
[8] = Oral bioavailability in mouse at 10 mg/kg; assay type: ADME, organism-based; settings: in vivo
[9] = Cmax in dog at 2 mg/kg, po; assay type: ADME, organism-based, Canis lupus familiaris; settings: in vivo
[10] = Half life in rat at 10 mg/kg, po; assay type: ADME, organism-based; settings: in vivo
[11] = Volume of distribution at steady state in rat at 1 mg/kg, iv; assay type: ADME, organism-based; settings: in vivo, read-out: Vdss
[12] = Plasma protein binding in human assessed as unbound fraction; assay type: ADME, cell-free
[13] = Toxicity in C57BL/6J mouse assessed as effect on body weight at 30 mg/kg, po BID measured after 19 days; assay type: organism-based; settings: in vivo, 456 h, time 19 day
[14] = Cmax in mouse at 50 mg/kg, po; assay type: ADME, organism-based; settings: in vivo
[15] = Oral bioavailability in dog at 2 mg/kg; assay type: ADME, organism-based, Canis lupus familiaris; settings: in vivo
[16] = Plasma protein binding in rat assessed as unbound fraction; assay type: ADME, cell-free
[17] = biological target: T1, Tyrosine-protein phosphatase non-receptor type 2; assay: Binding affinity to human PTPN2 assessed as dissociation constant measured upto 300 secs by SPR analysis
[18] = Clearance in rat assessed as liver blood flow at 1 mg/kg, iv; assay type: ADME, organism-based; settings: in vivo
[19] = Volume of distribution at steady state in mouse at 1 mg/kg, iv; assay type: ADME, organism-based; settings: in vivo, read-out: Vdss
[20] = AUC (0 to t) in dog at 2 mg/kg, po; assay type: ADME, organism-based, Canis lupus familiaris; settings: in vivo
[21] = Oral bioavailability in mouse at 50 mg/kg; assay type: ADME, organism-based; settings: in vivo
[22] = Clearance in mouse assessed as liver blood flow at 1 mg/kg, iv; assay type: ADME, organism-based; settings: in vivo
[23] = Half life in dog at 2 mg/kg, po; assay type: ADME, organism-based, Canis lupus familiaris; settings: in vivo
[24] = biological target: T2, Tyrosine-protein phosphatase non-receptor type 1 (Homo sapiens, UniProt P18031); assay: Inhibition of human PTP1B
T2 sequence (P18031 whole entry): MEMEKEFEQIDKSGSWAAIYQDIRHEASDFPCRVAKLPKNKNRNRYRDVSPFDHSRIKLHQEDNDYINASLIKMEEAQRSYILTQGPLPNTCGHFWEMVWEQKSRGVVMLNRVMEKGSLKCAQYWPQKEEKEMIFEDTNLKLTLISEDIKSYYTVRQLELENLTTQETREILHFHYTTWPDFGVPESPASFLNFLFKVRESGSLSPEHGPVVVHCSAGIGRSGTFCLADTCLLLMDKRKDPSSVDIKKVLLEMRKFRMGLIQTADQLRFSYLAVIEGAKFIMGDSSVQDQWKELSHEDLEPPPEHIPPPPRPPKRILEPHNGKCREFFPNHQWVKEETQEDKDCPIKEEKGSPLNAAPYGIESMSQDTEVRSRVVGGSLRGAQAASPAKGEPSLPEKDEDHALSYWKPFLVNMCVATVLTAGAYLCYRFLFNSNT

[25] = Plasma protein binding in mouse assessed as unbound fraction; assay type: ADME, cell-free
[26] = test system: MC-38; assay: Antitumor activity in mouse MC38 cells xenografted in C57BL/6J mouse model assessed as tumor growth inhibition at 30 mg/kg, po BID administered for 19 days relative to control; assay type: functional; settings: MC-38, 456 h, time 19 day, read-out: TGI
[27] = Half life in mouse at 50 mg/kg, po; assay type: ADME, organism-based; settings: in vivo
[28] = Clearance in dog assessed as liver blood flow at 1 mg/kg, iv; assay type: ADME, organism-based, Canis lupus familiaris; settings: in vivo
[29] = AUC (0 to t) in mouse at 50 mg/kg, po; assay type: ADME, organism-based; settings: in vivo
[30] = Oral bioavailability in rat at 10 mg/kg; assay type: ADME, organism-based; settings: in vivo
[31] = AUC (0 to t) in rat at 10 mg/kg, po; assay type: ADME, organism-based; settings: in vivo
[32] = Apparent permeability of compound in human Caco-2 cells across basolateral to apical side
[33] = Kinetic solubility of the compound at pH 7.4; settings: buffer
[34] = Apparent permeability of compound in human Caco-2 cells across apical to basolateral side
[35] = AUC (0 to t) in mouse at 1 mg/kg, iv; assay type: ADME, organism-based; settings: in vivo
[36] = Cmax in mouse at 1 mg/kg, iv; assay type: ADME, organism-based; settings: in vivo
[37] = Half life in mouse at 1 mg/kg, iv; assay type: ADME, organism-based; settings: in vivo

With `O=C1CN(c2c(O)cc3c(c2F)CCN(CCCC2CC2)CC3)S(=O)(=O)N1` the Cmax [1] was 621 ng/mL, the half-life [2] was 4.55 h and the AUC(0-t) [3] was 3480 ng·h/mL. The IC50 [4] was 247 nM and the IC50 [5] was 4.5 nM.
For `CCN1CCc2cc(O)c(N3CC(=O)NS3(=O)=O)c(F)c2CC1`, the Cmax [6] was 368 ng/mL, the Vd [7] was 0.35 L/kg and the Cmax [1] was 4750 ng/mL. For the same compound, the bioavailability [8] was 140%, the Cmax [9] was 402 ng/mL and the half-life [10] was 2.37 h. The half-life [2] was 2.37 h, the Vd [11] was 0.26 L/kg and the fraction unbound [12] was 0.804. The Activity [13] was “Non-Toxic”, the Cmax [14] was 17800 ng/mL and the bioavailability [15] was 19%. It also gave a fraction unbound [16] of 0.815, a Kd [17] of 8.7 nM and an LBF [18] of 15%. It also gave a Vd [19] of 0.4 L/kg, an AUC(0-t) [20] of 1430 ng·h/mL and a bioavailability [21] of 93%. For the same compound, the AUC(0-t) [3] was 20900 ng·h/mL, the LBF [22] was 12.7% and the half-life [23] was 1.31 h. The IC50 [24] was 3.09 nM, the fraction unbound [25] was 0.884 and the inhibition in vivo at 30 mg/kg [26] was 89%. For the same compound, the IC50 [4] was 212 nM, the half-life [27] was 2.1 h and the LBF [28] was 14.1%. For the same compound, the AUC(0-t) [29] was 69200 ng·h/mL, the bioavailability [30] was 19% and the IC50 [5] was 9.3 nM. The AUC(0-t) [31] was 1940 ng·h/mL.
Work on `O=C1CN(c2c(O)cc3c(c2F)CCN(CC2CC2)CC3)S(=O)(=O)N1` yielded a Cmax [1] of 899 ng/mL, a half-life [2] of 4.34 h and a fraction unbound [12] of 0.638. The AUC(0-t) [3] was 5140 ng·h/mL, the Papp B→A [32] was 0.18 ×10⁻⁶ cm/s and the solubility kinetic [33] was 202 µM (≈ 74.6 µg/mL). For the same compound, the fraction unbound [25] was 0.801, the IC50 [4] was 399 nM and the Papp A→B [34] was 0.28 ×10⁻⁶ cm/s. It also gave an IC50 [5] of 6.04 nM.
For `O=C1CN(c2c(O)cc3c(c2F)CCN(CC(F)F)CC3)S(=O)(=O)N1`, the IC50 [4] was 5330 nM and the IC50 [5] was 100 nM.
`O=C1CN(c2c(O)cc3c(c2F)CCNCC3)S(=O)(=O)N1` showed an IC50 [4] of 350 nM and an IC50 [5] of 19.7 nM.
Compound `CN1CCc2cc(O)c(N3CC(=O)NS3(=O)=O)c(F)c2CC1` has an AUC(0-t) [35] of 1490 ng·h/mL, a Cmax [1] of 2290 ng/mL and a half-life [2] of 2.22 h. It also gave a fraction unbound [12] of 0.998, a Cmax [36] of 3200 ng/mL and a fraction unbound [16] of 0.874. For the same compound, the half-life [37] was 0.9 h, the AUC(0-t) [3] was 7980 ng·h/mL and the fraction unbound [25] was 0.852. The IC50 [4] was 461 nM, the Papp A→B [34] was under 0.48 ×10⁻⁶ cm/s and the IC50 [5] was 4.5 nM.
For `CC(C)N1CCc2cc(O)c(N3CC(=O)NS3(=O)=O)c(F)c2CC1`, the IC50 [4] was 378 nM and the IC50 [5] was 9.2 nM.
`O=C1CN(c2c(O)cc3c(c2F)CCN(CCC2CC2)CC3)S(=O)(=O)N1` gave a Cmax [1] of 328 ng/mL, a half-life [2] of 4.64 h and an AUC(0-t) [3] of 1320 ng·h/mL. It also gave an IC50 [4] of 117 nM and an IC50 [5] of 4.3 nM.
